Each block holds one molecule with its values, some of them ahead of it.
Tests used:
[1] = literature value used in competition analysis; cited from earlier work
[2] = tested on: X/XO-catalyzed oxidation of HE (superoxide); test: Oxidation of HE by xanthine/xanthine oxidase (X/XO), fluorescence; assay type: biochemical; conditions: for effect on increase in fluorescence due to X/XO-catalyzed oxidation of HE: HE 50 μM, DNA 250 μg mL^−1, SOD 20 μg mL^−1, catalase 1000 U mL^−1
Method: (A) Incubation mixtures consisted of HE (50 μM), xanthine (1 mM), DTPA (100 μM), and XO (0.05 U mL^−1) in aerated phosphate buffer (100 mM, pH 7.4). Reaction was initiated by the addition of XO and the fluorescence spectrum recorded after 30 min. Shown for comparison is the spectrum obtained from E^+ (50 μM) obtained under identical experimental conditions. (B) Same as (A) but in the presence of DNA (250 μg mL^−1). (C) Incubations contained HE (50 μM), DTPA (100 μM) and DNA (250 μg mL^−1) and xanthine (1 mM) or XO (0.05 U mL^−1), both in the presence and absence of SOD (20 μg mL^−1). (D) Same as (B) but in the presence of catalase (1000 U mL^−1).
(A) Incubation initially consisted of HE (50 μM), xanthine (1 mM), XO (0.025 U mL^−1) and DTPA (100 μM) in phosphate buffer (100 mM, pH 7.4). A 50 μM of DEA/NO added at the point indicated by downward arrow. After the increase in fluorescence intensity ceased, an additional bolus amount of HE was added. (B) Same as (A) except XO (0.005 U mL^−1) and DEA/NO were added at a much lower concentration (10 μM).
(§1) Fluorescence measurements—The oxidation of HE in a superoxide generating system was performed on a Shimadzu RF-5301 PC spectrofluorometer (Shimadzu Scientific Instruments Inc., Japan). Typically, excitation was at 510 nm with a 3 or 5 nm slit width and the spectra were recorded over a wavelength region of 540–800 nm using a 10 or 20 nm slit width. The fluorescence emission spectra indicate the actual color of the product of superoxide and HE reaction, E^+ and HE.

[3] = Fluorescence measurements (fluorescence spectral characteristics); assay type: physicochemical; conditions: for Fluorescence color / Emission maximum (nm): /DNA labels = in the presence of DNA; for Extinction coefficient (mM^−1)*: E^+: excitation maximum 518 nm, HE/superoxide product: excitation maximum 480 nm, slit 3 nm, emission slit 20 nm; for Emission maximum (nm): phosphate buffer (100 mM, pH 7.4)
Method: as §1
Superoxide generation was measured to be 8 μM/min.

[4] = Competition kinetic analysis of the reaction between HE and superoxide; conditions: tentative, competition with BMPO and Cu, Zn-SOD
Method: Kinetic analysis of the reaction between HE and superoxide—The rate constant between HE and superoxide was calculated from competition experiments. At saturating concentrations of HE, superoxide will be consumed as follows:
Dismutation of superoxide was not considered in our analysis, because at saturating concentrations of HE (compared to superoxide flux), this reaction is negligible (Vásquez-Vivar, J. et al. Free Radic. Biol. Med. 31:975–985, 2001). Thus, assuming a steady-state approximation, the rate of superoxide consumption will be equal to new fluorescent product (P) formation, defined by
[formula] where kHE is the apparent rate constant for the reaction of HE with superoxide under the experimental conditions. Therefore, the ratio between V and V0 that corresponds to the rate of new product formation in the presence and absence of scavenger, respectively, is defined by
[formula] The values of V and V0 can be calculated from variations in fluorescence intensity of new product over time. In these experiments, 5-tert-butoxycarbonyl 5-methyl-1-pyrroline N-oxide (BMPO) and bovine Cu, Zn-SOD were used to trap or dismutate superoxide. The rate constant used for the reaction between BMPO and superoxide was 77±5 M^−1 s^−1 (Rosen, G. et al. J. Biol. Chem. 277:40275–40280, 2002) and 3×10^9 M^−1 s^−1 for Cu, Zn-SOD. […]

[5] = tested on: Bovine aortic endothelial cells; test: Intracellular detection of superoxide with HE in menadione-treated cells; assay type: cell-based; conditions: 25 min menadione exposure, then 10 μM HE for 20 min; versus control cells
Method: Bovine aortic endothelial cells were treated with menadione, a redox-cycling quinone known to induce cellular oxidative stress. After 25 min of exposure, cells were washed free of extracellular menadione and treated with 10 μM of HE for 20 min. Cells were washed and fluorescent images obtained in a fluorescence microscope. […] Cells were lysed and products extracted with n-butanol. After centrifugation to separate out the cell debris, the top layer of butanol was dried, dissolved in water, and HPLC/fluorescence chromatogram was obtained (FIG. 12). The intense peak eluting at 29 min corresponds to that of 2-hydroxyethidium (FIG. 12, top trace). For better separation in biological samples, a linear increase in CH3CN concentration from 10% to 70% in 46 min was used instead of a linear increase in CH3CN concentration from 10% to 40% in 30 min. The other HPLC analysis conditions were same as described above.

[6] = tested on: oxidation of HE by potassium superoxide; test: Oxidation of HE by potassium superoxide, fluorescence; assay type: biochemical; conditions: SOD 20 μg mL^−1, KO2 1.1 mM
Method: (A) Incubations consisted of HE (50 μM), DTPA (100 μM), and KO2 in the presence and absence of DNA (250 μg mL^−1) in phosphate buffer (100 mM, pH 7.4). Superoxide solution was prepared by adding 1 mg of KO2 in 1 mL of dry DMSO and vortexed vigorously for 10 min. The reaction was initiated by adding 40 μL of freshly prepared KO2 in DMSO to 0.46 mL of the above buffer (final concentration of KO2 was 1.1 mM). (B) Same as (A) but also containing SOD (20 μg mL^−1). The extent of oxidation of HE under these conditions is much less than that observed in X/XO.
as §1

[7] = target: T1, endothelial nitric oxide synthase (eNOS) (Bos taurus, UniProt P29473); test: Oxidation of HE by endothelial NOS, fluorescence; assay type: biochemical; conditions: SOD 20 μg mL^−1; BH4 10 μM; Ca^2+/CaM
T1 construct: made in house; host or cells: Escherichia coli
Method: (A) Incubations consisted of NADPH (0.1 mM), DTPA (100 μM), HE (50 μM), L-arginine (0.1 mM), purified eNOS (6.25 μg mL^−1), and Ca^2+ (0.2 mM)/CaM (20 μg mL^−1) in a HEPES buffer (50 mM, pH 7.4). Spectra were obtained 30 min after the addition of eNOS to different incubation mixtures. […] (B) Time-dependent changes in fluorescence of the product formed from an incubation mixture containing NADPH (0.1 mM), HE (50 μM), DTPA (100 μM), Ca^2+ (0.2 mM)/CaM (20 μg mL^−1), and purified eNOS (6.25 μg mL^−1) in a HEPES buffer (50 mM, pH 7.4). (C) Same as (B) except in the presence of SOD (20 μg mL^−1).
as §1

Molecule: CC(C)(C)OC(=O)C1(C)CCC=[N+]1[O-] (centres unmarked) [BMPO, 5-tert-butoxycarbonyl 5-methyl-1-pyrroline N-oxide]
rate constant used for the reaction with superoxide [1]: 77 ± 5 M⁻¹ s⁻¹

Molecule: CCN(CC)[N+]([O-])=NO [DEA/NO, 2-(N,N-diethylamino)-diazenolate-2-oxide]
effect on increase of fluorescence due to superoxide-dependent oxidation of HE by X/XO ([2]; DEA/NO 10 μM, XO 0.005 U mL^−1): inhibited

Molecule: CC[n+]1c(-c2ccccc2)c2cc(N)ccc2c2ccc(N)cc21 [E^+, ethidium]
Fluorescence color [3]: Red
Extinction coefficient (mM^−1)* [3]: 232 mM⁻¹
Emission maximum (nm) [3]: 603 nm
Emission maximum (nm) ([3]; listed as ethidium): 605 nm

Molecule: CCN1c2cc(N)ccc2-c2ccc(N)cc2C1c1ccccc1 (centres unmarked) [HE, Hydroethidine (dihydroethidium)]
Fluorescence color [3]: Red
Extinction coefficient (mM^−1)* [3]: 48 mM⁻¹
Emission maximum (nm) [3]: 595 nm
rate constant between the superoxide anion and HE [4]: approximately 2.6±0.6×10^5 M^−1 s^−1

Fluorescence color [3]: Orange
Extinction coefficient (mM^−1)* [3]: 285 mM⁻¹
Emission maximum (nm) [3]: 586 nm
emission maximum ([3]; purified product, in the presence of DNA (250 μg mL^−1) in phosphate buffer): 567 nm
Molecule: CC[n+]1c(-c2ccccc2)c2cc(N)ccc2c2cc(O)c(N)cc21 [HE/superoxide product, 2-hydroxyethidium]

Molecule: CC1=CC(=O)c2ccccc2C1=O [menadione]
fluorescence of cells after HE (fluorescence microscope) [5]: intense red fluorescence

effect on increase in fluorescence due to X/XO-catalyzed oxidation of HE [2]: completely nullified
effect on oxidation of HE by eNOS [7]: inhibited the oxidation of HE
Molecule: Cu, Zn-SOD: Bovine copper, zinc superoxide dismutase
effect on formation of fluorescent product from HE and potassium superoxide [6]: inhibited the formation of this product
rate constant used for the reaction with superoxide [1]: 3e+09 M⁻¹ s⁻¹

effect on increase in fluorescence due to X/XO-catalyzed oxidation of HE [2]: increased slightly
Molecule: catalase

Reference: patent publication US7223864B2, “2-hydroxyethidium, methods of preparation and uses thereof” (MCW Research Foundation, Inc., priority 2004, dated 2007)
